# Data as given in the Kinase Knowledgebase extract (Sharma et al. 2016).
# Molecular target: EGFR (human) (UniProt P00533)
# Sequence (P00533 whole entry, looked up): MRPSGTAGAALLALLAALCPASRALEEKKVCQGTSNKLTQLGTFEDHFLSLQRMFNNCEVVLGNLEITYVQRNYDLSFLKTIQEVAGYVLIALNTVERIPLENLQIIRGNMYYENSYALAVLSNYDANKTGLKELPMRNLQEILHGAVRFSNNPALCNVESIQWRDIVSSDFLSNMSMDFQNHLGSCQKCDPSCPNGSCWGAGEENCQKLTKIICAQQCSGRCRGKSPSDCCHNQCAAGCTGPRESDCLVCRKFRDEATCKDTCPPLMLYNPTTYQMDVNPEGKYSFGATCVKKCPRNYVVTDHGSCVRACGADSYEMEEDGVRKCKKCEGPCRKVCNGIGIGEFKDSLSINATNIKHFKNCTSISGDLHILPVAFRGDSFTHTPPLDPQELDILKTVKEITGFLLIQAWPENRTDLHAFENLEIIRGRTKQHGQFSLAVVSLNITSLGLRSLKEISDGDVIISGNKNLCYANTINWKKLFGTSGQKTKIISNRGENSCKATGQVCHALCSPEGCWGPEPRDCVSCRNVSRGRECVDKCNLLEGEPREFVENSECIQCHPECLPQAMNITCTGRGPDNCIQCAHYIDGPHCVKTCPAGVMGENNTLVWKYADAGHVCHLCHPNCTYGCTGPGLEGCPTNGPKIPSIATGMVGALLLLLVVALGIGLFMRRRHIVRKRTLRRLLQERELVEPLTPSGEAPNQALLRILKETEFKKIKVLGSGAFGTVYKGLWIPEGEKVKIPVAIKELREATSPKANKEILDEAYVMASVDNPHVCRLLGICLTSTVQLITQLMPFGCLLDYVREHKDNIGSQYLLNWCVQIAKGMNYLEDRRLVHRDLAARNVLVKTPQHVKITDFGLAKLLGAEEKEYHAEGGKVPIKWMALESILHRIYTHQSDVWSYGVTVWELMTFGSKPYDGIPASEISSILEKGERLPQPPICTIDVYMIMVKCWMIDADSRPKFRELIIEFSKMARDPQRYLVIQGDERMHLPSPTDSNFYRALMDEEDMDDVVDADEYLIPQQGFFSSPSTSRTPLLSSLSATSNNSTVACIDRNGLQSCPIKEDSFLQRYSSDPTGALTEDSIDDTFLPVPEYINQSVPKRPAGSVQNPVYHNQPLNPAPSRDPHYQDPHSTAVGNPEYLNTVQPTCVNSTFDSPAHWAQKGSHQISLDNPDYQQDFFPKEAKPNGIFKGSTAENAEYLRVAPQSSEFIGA
row,SMILES,IC50 [µM]
1,O=C(Nc1ccc(F)cc1F)c1ccccc1O,> 50
2,O=C(Nc1ccccc1)c1ccccc1O,> 50
3,O=C(Nc1ccc(Br)cc1)c1ccccc1O,> 50
4,O=C(Nc1ccc(F)cc1)c1cc(Br)cc(Br)c1O,> 50
5,O=C(Nc1ccc(F)cc1)c1ccccc1O,> 50

# Other lines, results leading:
row,IC50 [µM],SMILES
1,> 50,Cc1ccc(C(=O)Nc2ccc(C(C)C)cc2)c(O)c1
2,> 50,Cc1ccc(C(=O)Nc2ccc(F)cc2F)c(O)c1
3,> 50,Cc1ccc(C(=O)Nc2ccc(Cl)cc2)c(O)c1
4,> 50,Cc1ccc(C(=O)Nc2ccccc2)c(O)c1
5,> 50,O=C(Nc1ccc(F)cc1)c1cc(I)ccc1O
